{"source": "patent US20130281467A1", "about": "“NOVEL MICROBICIDES” (SYNGENTA PARTICIPATIONS AG, priority 2010, published 2013)", "key": {"Gaeumannomyces graminis": {"tested_on": "Gaeumannomyces graminis", "experiment": "Fungicidal activity against Gaeumannomyces graminis / liquid culture (take-all of cereals)", "type": "cell-based", "settings": "4-5 days after application, read-out: disease control (inhibition of growth, photometrically)", "method_in_brief": "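Cryostored mycelial fragments in potato dextrose broth added to 96-well plates with test compound in DMSO. Plates kept at 24° C; growth inhibition measured photometrically 4-5 days after application.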"}, "[1]": {"tested_on": "Mycosphaerella arachidis (Cercospora arachidicola)", "experiment": "Fungicidal activity against Mycosphaerella arachidis (Cercospora arachidicola) / liquid culture (early leaf spot)", "type": "cell-based", "settings": "4-5 days after application, read-out: disease control (inhibition of growth, photometrically)", "method_in_brief": "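Cryopreserved conidia in potato dextrose broth added to compound in DMSO in microtiter plates. Incubation at 24 °C; growth inhibition read photometrically 4-5 days after application.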"}, "[2]": {"tested_on": "Monographella nivalis (Microdochium nivale)", "experiment": "Fungicidal activity against Monographella nivalis (Microdochium nivale) / liquid culture (foot rot cereals)", "type": "cell-based", "settings": "4-5 days after application, read-out: disease control (inhibition of growth, photometrically)", "method_in_brief": "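Conidia in potato dextrose broth added to microtiter wells holding test compound in DMSO. Incubated at 24° C.; growth inhibition read photometrically 4-5 days after application.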"}, "Pyrenophora teres": {"tested_on": "Pyrenophora teres", "experiment": "Fungicidal activity against Pyrenophora teres / barley / leaf disc preventative (net blotch)", "type": "in vivo", "settings": "foliar, barley leaf segments, inoculated 2 days after application, compared to untreated, read-out: disease control", "method_in_brief": "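Barley leaf segments (cv. Hasso) on agar sprayed with formulated compound in water, then spore-inoculated 2 days later. Kept at 20 °C, 65% rh, 12 h light/dark; disease control versus untreated scored 5-7 days after application.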"}, "[3]": {"tested_on": "Botryotinia fuckeliana (Botrytis cinerea)", "experiment": "Fungicidal activity against Botryotinia fuckeliana (Botrytis cinerea) / liquid culture (gray mould)", "type": "cell-based", "settings": "3-4 days after application, read-out: disease control (inhibition of growth, photometrically)", "method_in_brief": "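Conidia from cryogenic storage were mixed into Vogels broth and added to wells containing compound in DMSO. Plates incubated at 24 °C; growth inhibition read photometrically 3–4 days after application.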"}, "Alternaria solani": {"tested_on": "Alternaria solani", "experiment": "Fungicidal activity against Alternaria solani / tomato / leaf disc (early blight)", "type": "in vivo", "settings": "foliar, tomato leaf disks, inoculated 2 days after application, compared to untreated, read-out: disease control", "procedure": "Fungicidal Activity Against Alternaria solani/Tomato/Leaf Disc (Early Blight) Tomato leaf disks cv. Baby were placed on agar in multiwell plates (24-well format) and sprayed with the formulated test compound diluted in water. The leaf disks were inoculated with a spore suspension of the fungus 2 days after application. The inoculated leaf disks were incubated at 23° C./21° C."}, "[4]": {"tested_on": "Thanatephorus cucumeris (Rhizoctonia solani)", "experiment": "Fungicidal activity against Thanatephorus cucumeris (Rhizoctonia solani) / liquid culture (foot rot, damping-off)", "type": "cell-based", "settings": "3-4 days after application, read-out: disease control (inhibition of growth, photometrically)", "method_in_brief": "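Fungal mycelia fragments from fresh liquid culture were mixed into potato dextrose broth and added to test compounds supplied in DMSO. Incubation was at 24° C. Growth inhibition was read photometrically 3-4 days after application.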"}, "[5]": {"tested_on": "Mycosphaerella graminicola (Septoria tritici)", "experiment": "Fungicidal activity against Mycosphaerella graminicola (Septoria tritici) / liquid culture (Septoria blotch)", "type": "cell-based", "settings": "Zymoseptoria tritici, 4-5 days after application, read-out: disease control (inhibition of growth, photometrically)", "method_in_brief": "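Cryo-stored conidia were suspended in potato dextrose broth and added to test compound dispensed from DMSO solution. Plates were held at 24° C., and growth inhibition was measured photometrically 4-5 days after application.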"}, "[6]": {"tested_on": "Phaeosphaeria nodorum (Septoria nodorum)", "experiment": "Fungicidal activity against Phaeosphaeria nodorum (Septoria nodorum) / wheat / leaf disc preventative (glume blotch)", "type": "in vivo", "settings": "Parastagonospora nodorum, foliar, wheat leaf segments, inoculated 2 days after application, compared to untreated, read-out: disease control", "method_in_brief": "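Wheat cv. Kanzler leaf segments on agar, sprayed with diluted formulated compound, then spore-inoculated 2 days later. Kept at 20 °C, 75% rh, 12 h light/12 h dark; percent disease control versus untreated scored once untreated discs show disease, 5–7 days after application.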"}, "[7]": {"tested_on": "Glomerella lagenarium (Colletotrichum lagenarium)", "experiment": "Fungicidal activity against Glomerella lagenarium (Colletotrichum lagenarium) / liquid culture (anthracnose)", "type": "cell-based", "settings": "Colletotrichum orbiculare, 3-4 days after application, read-out: disease control (inhibition of growth, photometrically)", "method_in_brief": "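Cryostored conidia mixed into potato dextrose broth were added to test compound in DMSO. Plates were incubated at 24° C. Growth inhibition was measured photometrically 3-4 days after application.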"}, "[8]": {"tested_on": "Puccinia recondita f. sp. tritici", "experiment": "Fungicidal activity against Puccinia recondita f. sp. tritici / wheat / leaf disc preventative (brown rust)", "type": "in vivo", "settings": "foliar, wheat leaf segments, inoculated 1 day after application, compared to untreated, read-out: disease control", "method_in_brief": "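Wheat leaf segments (cv. Kanzler) on agar sprayed with formulated compound in water, inoculated with spore suspension 1 day later. Incubated at 19° C, 75% rh, 12 h light/12 h dark; percent disease control versus untreated scored 7-9 days after application.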"}, "[9]": {"tested_on": "Blumeria graminis f. Sp. tritici (Erysiphe graminis f. sp. tritici)", "experiment": "Fungicidal activity against Blumeria graminis f. sp. tritici / wheat / leaf disc preventative (powdery mildew on wheat)", "type": "in vivo", "settings": "foliar, wheat leaf segments, inoculated 1 day after application, compared to untreated, read-out: disease control", "method_in_brief": "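Wheat cv. Kanzler leaf segments on agar were sprayed with the formulated compound diluted in water and inoculated with powdery mildew 1 day later. Incubation was at 20 °C and 60% rh: 24 h dark, then 12 h light/12 h dark. Percent disease control versus untreated was scored 6–8 days after application.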"}}}
{"smiles": "Clc1ccccc1Cc1cccc(-c2ncc3c(n2)CCOC3)n1", "note": "[Compound 3]", "values": [{"measurement": "inhibition at 200 ppm", "setting": "Gaeumannomyces graminis", "value": "≥ 80", "unit": "%"}, {"measurement": "melting point", "value": "112 to 113", "unit": "°C"}, {"measurement": "inhibition at 200 ppm", "setting": "[1]", "value": "≥ 80", "unit": "%"}, {"measurement": "inhibition at 200 ppm", "setting": "[2]", "value": "≥ 80", "unit": "%"}, {"measurement": "pest or weed control at 200 ppm", "setting": "Pyrenophora teres", "value": "≥ 80", "unit": "%"}, {"measurement": "inhibition at 200 ppm", "setting": "[3]", "value": "≥ 80", "unit": "%"}, {"measurement": "pest or weed control at 200 ppm", "setting": "Alternaria solani", "value": "≥ 80", "unit": "%"}, {"measurement": "inhibition at 200 ppm", "setting": "[4]", "value": "≥ 80", "unit": "%"}, {"measurement": "inhibition at 200 ppm", "setting": "[5]", "value": "≥ 80", "unit": "%"}, {"measurement": "pest or weed control at 200 ppm", "setting": "[6]", "value": "≥ 80", "unit": "%"}, {"measurement": "inhibition at 200 ppm", "setting": "[7]", "value": "≥ 80", "unit": "%"}, {"measurement": "pest or weed control at 200 ppm", "setting": "[8]", "value": "≥ 80", "unit": "%"}, {"measurement": "pest or weed control at 200 ppm", "setting": "[9]", "value": "≥ 80", "unit": "%"}]}
{"smiles": "Clc1ccc(Cc2cccc(-c3ncc4c(n3)CCOC4)n2)cc1", "note": "[Compound 5]", "values": [{"measurement": "inhibition at 200 ppm", "setting": "Gaeumannomyces graminis", "value": "≥ 80", "unit": "%"}, {"measurement": "melting point", "value": "104 to 106", "unit": "°C"}, {"measurement": "inhibition at 200 ppm", "setting": "[1]", "value": "≥ 80", "unit": "%"}, {"measurement": "inhibition at 200 ppm", "setting": "[2]", "value": "≥ 80", "unit": "%"}, {"measurement": "pest or weed control at 200 ppm", "setting": "Pyrenophora teres", "value": "≥ 80", "unit": "%"}, {"measurement": "inhibition at 200 ppm", "setting": "[3]", "value": "≥ 80", "unit": "%"}, {"measurement": "pest or weed control at 200 ppm", "setting": "Alternaria solani", "value": "≥ 80", "unit": "%"}, {"measurement": "inhibition at 200 ppm", "setting": "[4]", "value": "≥ 80", "unit": "%"}, {"measurement": "inhibition at 200 ppm", "setting": "[5]", "value": "≥ 80", "unit": "%"}, {"measurement": "pest or weed control at 200 ppm", "setting": "[6]", "value": "≥ 80", "unit": "%"}, {"measurement": "inhibition at 200 ppm", "setting": "[7]", "value": "≥ 80", "unit": "%"}, {"measurement": "pest or weed control at 200 ppm", "setting": "[8]", "value": "≥ 80", "unit": "%"}, {"measurement": "pest or weed control at 200 ppm", "setting": "[9]", "value": "≥ 80", "unit": "%"}]}
{"smiles": "COc1ccccc1Cc1cccc(-c2ncc3c(n2)CCOC3)n1", "note": "[Compound 7]", "values": [{"measurement": "inhibition at 200 ppm", "setting": "Gaeumannomyces graminis", "value": "≥ 80", "unit": "%"}, {"measurement": "melting point", "value": "135 to 137", "unit": "°C"}, {"measurement": "inhibition at 200 ppm", "setting": "[1]", "value": "≥ 80", "unit": "%"}, {"measurement": "inhibition at 200 ppm", "setting": "[2]", "value": "≥ 80", "unit": "%"}, {"measurement": "pest or weed control at 200 ppm", "setting": "Pyrenophora teres", "value": "≥ 80", "unit": "%"}, {"measurement": "inhibition at 200 ppm", "setting": "[3]", "value": "≥ 80", "unit": "%"}, {"measurement": "pest or weed control at 200 ppm", "setting": "Alternaria solani", "value": "≥ 80", "unit": "%"}, {"measurement": "inhibition at 200 ppm", "setting": "[5]", "value": "≥ 80", "unit": "%"}, {"measurement": "pest or weed control at 200 ppm", "setting": "[6]", "value": "≥ 80", "unit": "%"}, {"measurement": "inhibition at 200 ppm", "setting": "[7]", "value": "≥ 80", "unit": "%"}, {"measurement": "pest or weed control at 200 ppm", "setting": "[8]", "value": "≥ 80", "unit": "%"}, {"measurement": "pest or weed control at 200 ppm", "setting": "[9]", "value": "≥ 80", "unit": "%"}]}
{"smiles": "c1ccc(Cc2cccc(-c3ncc4c(n3)CCC3(C4)OCCO3)n2)cc1", "note": "[Compound 19]", "values": [{"measurement": "inhibition at 200 ppm", "setting": "Gaeumannomyces graminis", "value": "≥ 80", "unit": "%"}, {"measurement": "melting point", "value": "236 to 237", "unit": "°C"}, {"measurement": "inhibition at 200 ppm", "setting": "[1]", "value": "≥ 80", "unit": "%"}, {"measurement": "inhibition at 200 ppm", "setting": "[2]", "value": "≥ 80", "unit": "%"}, {"measurement": "pest or weed control at 200 ppm", "setting": "Pyrenophora teres", "value": "≥ 80", "unit": "%"}, {"measurement": "inhibition at 200 ppm", "setting": "[3]", "value": "≥ 80", "unit": "%"}, {"measurement": "pest or weed control at 200 ppm", "setting": "Alternaria solani", "value": "≥ 80", "unit": "%"}, {"measurement": "inhibition at 200 ppm", "setting": "[4]", "value": "≥ 80", "unit": "%"}, {"measurement": "inhibition at 200 ppm", "setting": "[5]", "value": "≥ 80", "unit": "%"}, {"measurement": "pest or weed control at 200 ppm", "setting": "[6]", "value": "≥ 80", "unit": "%"}, {"measurement": "inhibition at 200 ppm", "setting": "[7]", "value": "≥ 80", "unit": "%"}, {"measurement": "pest or weed control at 200 ppm", "setting": "[8]", "value": "≥ 80", "unit": "%"}, {"measurement": "pest or weed control at 200 ppm", "setting": "[9]", "value": "≥ 80", "unit": "%"}]}
{"smiles": "COc1ccc(Cc2cccc(-c3ncc4c(n3)CCOC4)n2)cc1", "note": "[Compound 21]", "values": [{"measurement": "inhibition at 200 ppm", "setting": "Gaeumannomyces graminis", "value": "≥ 80", "unit": "%"}, {"measurement": "melting point", "value": "216 to 219", "unit": "°C"}, {"measurement": "inhibition at 200 ppm", "setting": "[1]", "value": "≥ 80", "unit": "%"}, {"measurement": "inhibition at 200 ppm", "setting": "[2]", "value": "≥ 80", "unit": "%"}, {"measurement": "pest or weed control at 200 ppm", "setting": "Pyrenophora teres", "value": "≥ 80", "unit": "%"}, {"measurement": "inhibition at 200 ppm", "setting": "[3]", "value": "≥ 80", "unit": "%"}, {"measurement": "pest or weed control at 200 ppm", "setting": "Alternaria solani", "value": "≥ 80", "unit": "%"}, {"measurement": "inhibition at 200 ppm", "setting": "[4]", "value": "≥ 80", "unit": "%"}, {"measurement": "inhibition at 200 ppm", "setting": "[5]", "value": "≥ 80", "unit": "%"}, {"measurement": "pest or weed control at 200 ppm", "setting": "[6]", "value": "≥ 80", "unit": "%"}, {"measurement": "inhibition at 200 ppm", "setting": "[7]", "value": "≥ 80", "unit": "%"}, {"measurement": "pest or weed control at 200 ppm", "setting": "[8]", "value": "≥ 80", "unit": "%"}, {"measurement": "pest or weed control at 200 ppm", "setting": "[9]", "value": "≥ 80", "unit": "%"}]}
